Source: patent US5298521A, “1,5-diphenyl-3-pyrazolylalkyl-N-hydroxydithiocaramates, compositions and use” (Ortho Pharmaceutical Corporation, priority 1993, dated 1994)

Legend:
[1] = biological target: T1, 5-LO in intact RBL-1 cells (Rattus norvegicus, UniProt P12527); experiment: 5-LO inhibition in intact RBL-1 cells (Procedure III); format: cell-based; conditions: read-out: PROC. III IC50 5-LO
T1 construct: endogenous in cells; host or cells: intact RBL-1 cells
T1 sequence (P12527 1-673): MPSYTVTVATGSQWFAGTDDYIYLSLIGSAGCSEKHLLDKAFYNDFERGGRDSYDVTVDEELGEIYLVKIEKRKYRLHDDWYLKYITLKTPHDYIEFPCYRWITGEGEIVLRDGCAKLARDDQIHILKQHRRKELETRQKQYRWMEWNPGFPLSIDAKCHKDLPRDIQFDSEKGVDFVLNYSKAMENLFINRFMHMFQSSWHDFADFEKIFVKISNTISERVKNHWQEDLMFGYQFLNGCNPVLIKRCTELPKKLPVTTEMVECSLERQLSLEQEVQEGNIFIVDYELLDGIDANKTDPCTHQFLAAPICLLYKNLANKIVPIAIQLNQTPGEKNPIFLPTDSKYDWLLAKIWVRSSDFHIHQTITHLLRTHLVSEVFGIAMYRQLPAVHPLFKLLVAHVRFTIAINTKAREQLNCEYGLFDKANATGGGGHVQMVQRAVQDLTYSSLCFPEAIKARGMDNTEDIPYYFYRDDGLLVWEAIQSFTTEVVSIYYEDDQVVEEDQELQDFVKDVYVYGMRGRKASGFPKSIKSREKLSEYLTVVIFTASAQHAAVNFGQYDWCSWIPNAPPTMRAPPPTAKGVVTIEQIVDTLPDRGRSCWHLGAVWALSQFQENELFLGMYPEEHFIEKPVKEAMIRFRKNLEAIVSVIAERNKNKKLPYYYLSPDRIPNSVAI
Protocol: (§1) The ability to inhibit 5-LO and CO in intact RBL-1 cells was also evaluated. RBL-1 cells were maintained in culture in minimal essential medium (Bio*Whittaker, Walkersville, MD), containing 12.5% fetal calf serum, 10 mg/mL streptomycin, 10 I.U./mL penicillin G, […] gentamycin and 2 mM L-glutamine (Bio*Whittaker, Walkersville, MD). Cells were collected by centrifugation, washed once in HBSS, and resuspended at a concentration of 1×10^5 cells/mL. Cells were incubated in the presence of vehicle or drug then centrifuged at 800×g for 10 minutes at 4° C. The supernatant was removed by aspiration and the cells were resuspended in 0.5 mL of HBSS. The reaction was started by the addition of 20 μg/mL of calcium ionophore A-23187 (mixed calcium and magnesium salts, Calbiochem, La Jolla CA) and allowed to proceed for 15 minutes, then stopped by plunging the tubes into a slush ice bath. The conversion of AA to 5-LO products was initiated by the addition of 10 μL (50 uCi) of 1-^14 C-AA. Products were isolated by acidification and extraction, followed by thin layer chromatography analysis as described above. Radioactive areas corresponding to authentic 5-LO and CO products were quantitated by the Bioscan 2000 Imaging System.

CO in intact RBL-1 cells = experiment: CO inhibition in intact RBL-1 cells (Procedure III); format: cell-based, rat; conditions: superscript = number of experiments, read-out: PROC. III IC50 CO
Protocol: as §1

[2] = biological target: T2, Sheep seminal vesicle cyclooxygenase (Ovis aries, UniProt P05979); experiment: Sheep seminal vesicle cyclooxygenase (Procedure I); format: biochemical; conditions: read-out: PROC. I % INHIB CO
T2 construct: Sheep seminal vesicle (SSV) cyclooxygenase (95% pure); purchased Biomol (Plymouth Meeting, Pa.); host or cells: sheep seminal vesicle
T2 sequence (P05979 25-600): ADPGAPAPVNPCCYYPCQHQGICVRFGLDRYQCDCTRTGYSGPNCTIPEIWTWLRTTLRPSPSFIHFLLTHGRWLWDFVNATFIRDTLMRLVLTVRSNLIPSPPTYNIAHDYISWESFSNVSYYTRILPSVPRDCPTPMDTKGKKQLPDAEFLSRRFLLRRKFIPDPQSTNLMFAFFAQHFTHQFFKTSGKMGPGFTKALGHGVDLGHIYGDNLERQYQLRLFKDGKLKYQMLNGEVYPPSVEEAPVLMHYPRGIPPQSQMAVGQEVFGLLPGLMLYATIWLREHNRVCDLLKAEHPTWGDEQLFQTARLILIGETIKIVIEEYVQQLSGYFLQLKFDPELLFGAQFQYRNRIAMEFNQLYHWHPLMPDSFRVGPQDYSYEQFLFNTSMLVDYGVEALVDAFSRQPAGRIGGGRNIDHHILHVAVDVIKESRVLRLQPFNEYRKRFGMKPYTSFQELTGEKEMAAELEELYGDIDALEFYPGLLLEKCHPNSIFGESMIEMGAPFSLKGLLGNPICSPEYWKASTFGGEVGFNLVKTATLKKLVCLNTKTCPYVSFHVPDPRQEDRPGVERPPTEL
Protocol: Sheep seminal vesicle cyclooxygenase Sheep seminal vesicle (SSV) cyclooxygenase (95% pure, prostaglandin endoperoxide synthase, EC 1.14.99.1 specific activity 24 units/mg protein) obtained as a lyophilized powder from Biomol (Plymouth Meeting, Pa.) was reconstituted at a concentration of 59 mg/mL in Hanks' Balanced Salt Solution (HBSS). The enzyme was divided into 200 μL aliquots, snap frozen with liquid N2, and stored at -70° C. unitl immediately prior to use. Measurements of CO activity were carried out in polypropylene tubes containing 495 μL of HBSS to which was added 5 μL of inhibitor or dimethylsulfoxide (DMSO; vehicle control) and 6 μL of SSV CO solution. The tubes were mixed on a vortex shaker, preincubated for 5 min at 37° C. prior to the initiation of the reaction. The reaction was started by the addition of [^14 C]-arachidonic acid (1-^14 C-AA, Amersham, Arlington Heights, Il) in 10 μL of methanol. Tubes were again vortexed and incubated in a water bath for 20 minutes after which the tubes were removed and the reaction stopped by acidification with the addition of 1 mL 2M formic acid. Lipophilic products were extracted with 3 mL chloroform and concentrated to dryness under N2. Each pellet was reconstituted with 40 μL of chloroform and spotted on a Whatman Silicon thin-layer chromatography plate and developed in a chromatography tank containing A-9 solvent (11:5:2:1 V:V:V:V, ethyl acetate:trimethylpentane:acetic acid:double distilled-H2 O). Radioactive cyclooxygenase products (prostaglandin D2, prostaglandin E2, etc.) were measured using a Bioscan System 200 Imaging Scanner. Inhibition of enzyme activity was calculated by comparing the areas under the curve produced in the presence or absence of test compound.

| IC50 [1] [nM] | IC50 (CO in intact RBL-1 cells) [nM] | inhibition at 3 µM [2] [%] | SMILES |
| --- | --- | --- | --- |
| 7000 | 1400 | 39 | COc1ccc(-n2nc(CSC(=S)N(O)C(C)C)cc2-c2ccc(Cl)cc2)cc1 [1-B] |
| 240 | 2400 | 46 | COc1ccc(-n2nc(CSC(=S)N(C)O)c(Cl)c2-c2ccc(Cl)cc2)cc1 [1-C] |
| – | – | 31 | COc1ccc(-n2nc(CSC(=S)N(O)C(C)C)c(Cl)c2-c2ccc(Cl)cc2)cc1 [1-D] |
| 2800 | 6500 | 0 | COc1ccc(-n2nc(CSC(=S)N(O)C(C)C)c(Br)c2-c2ccc(Cl)cc2)cc1 [1-E] |
| 5600 | 180 | 36 | COc1ccc(-n2nc(CSC(=S)N(O)C(C)C)cc2-c2ccc(C)cc2)cc1 [1-G] |
| 670 | 1600 | 39 | COc1ccc(-n2nc(CSC(=S)N(C)O)c(Cl)c2-c2ccc(C)cc2)cc1 [1-H] |
